Experimental data published in ChEMBL document CHEMBL1201862, “PubChem BioAssay data set” (2004).
Calls of active or inactive are those of the source.

Columns and labels:
[1] = human group III sPLA2 inhibitors, dose response, biochemical, QFRET, IC50 (AID 743457);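 note: green fluorescence rise as the enzyme cleaves BODIPY PC-A2 in liposomes; potency for inhibition of the enzyme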
[2] = ADAM10 inhibitors, peptide cleavage, dose response, biochemical, QFRET (AID 743254);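 note: ADAM10 enzyme with the DM2 quenched FRET peptide as substrate; EDANS fluorescence gain as the protease cuts the substrate; inhibitor potency against ADAM10 proteolytic activity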
[3] = target: Disintegrin and metalloproteinase domain-containing protein 17 (Homo sapiens, UniProt P78536); assay: ADAM17 protease inhibitors, dose response, counter-screen for ADAM10 exosite inhibitor project, biochemical, quenched FRET substrate (AID 743253)
[4] = Luminescence Cell-Based Dose Retest to Confirm Inhibitors of Cancer Stem Cells. [Related pubchem assays (depositor defined):AID2717, AID2721]; type: functional; conditions: Homo sapiens
[5] = target: T1, Long-chain-fatty-acid--AMP ligase FadD28 (Mycobacterium tuberculosis, UniProt P9WQ59); assay: Fluorescence polarization aasay to screen for inhibitors that compete for the binding of FadD28 to a bisubstrate Measured in Biochemical System Using Plate Reader - 2147-01_Inhibitor_Dose_CherryPick_Activity.; type: functional, Mycobacterium tuberculosis H37Rv
T1 sequence (P9WQ59 whole entry): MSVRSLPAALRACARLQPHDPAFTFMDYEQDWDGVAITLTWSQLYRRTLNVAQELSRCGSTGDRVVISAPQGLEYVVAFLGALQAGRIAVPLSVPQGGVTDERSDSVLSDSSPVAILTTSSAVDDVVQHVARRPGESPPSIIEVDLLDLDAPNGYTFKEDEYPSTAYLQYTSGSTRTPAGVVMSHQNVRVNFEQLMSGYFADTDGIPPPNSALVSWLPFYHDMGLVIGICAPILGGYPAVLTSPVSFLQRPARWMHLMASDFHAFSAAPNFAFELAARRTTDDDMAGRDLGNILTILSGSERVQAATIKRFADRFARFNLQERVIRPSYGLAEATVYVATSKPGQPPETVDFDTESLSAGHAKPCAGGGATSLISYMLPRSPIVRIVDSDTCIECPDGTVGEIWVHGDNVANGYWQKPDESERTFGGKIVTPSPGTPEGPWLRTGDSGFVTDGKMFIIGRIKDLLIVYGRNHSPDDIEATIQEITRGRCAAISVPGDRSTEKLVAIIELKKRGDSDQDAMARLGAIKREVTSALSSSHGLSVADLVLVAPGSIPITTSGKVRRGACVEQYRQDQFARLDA

Cytochrome P450 2C19 = Cytochrome P450 2C19 (Homo sapiens, UniProt P33261); assay: Cytochrome panel assay with activity outcomes. Panel member name: p450-cyp2c19 Compounds with AC50 equal or less than 10 uM are considered active; type: functional; conditions: read-out: AC50
[6] = target: T2, Endoribonuclease toxin MazF (Escherichia coli K-12, UniProt P0AE70); assay: MazF toxin RNase activators, dose response, biochemical, fluorescence, single-stranded RNA substrate, uHTS hits (AID 588481); type: functional
T2 sequence (P0AE70 whole entry): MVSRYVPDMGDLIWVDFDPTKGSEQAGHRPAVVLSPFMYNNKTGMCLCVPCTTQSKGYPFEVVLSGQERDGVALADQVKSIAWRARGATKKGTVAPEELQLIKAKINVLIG

[7] = target: T2, Endoribonuclease toxin MazF; assay: fluorescent RNA oligo signal without MazF, dose response, counter-screen for MazEF activator project, biochemical, fluorescence, single-stranded RNase substrate (AID 588502); type: functional
[8] = target: T3, DNA repair protein RAD52 homolog (Homo sapiens, UniProt P43351); type: functional, biochemical
T3 sequence (P43351 whole entry): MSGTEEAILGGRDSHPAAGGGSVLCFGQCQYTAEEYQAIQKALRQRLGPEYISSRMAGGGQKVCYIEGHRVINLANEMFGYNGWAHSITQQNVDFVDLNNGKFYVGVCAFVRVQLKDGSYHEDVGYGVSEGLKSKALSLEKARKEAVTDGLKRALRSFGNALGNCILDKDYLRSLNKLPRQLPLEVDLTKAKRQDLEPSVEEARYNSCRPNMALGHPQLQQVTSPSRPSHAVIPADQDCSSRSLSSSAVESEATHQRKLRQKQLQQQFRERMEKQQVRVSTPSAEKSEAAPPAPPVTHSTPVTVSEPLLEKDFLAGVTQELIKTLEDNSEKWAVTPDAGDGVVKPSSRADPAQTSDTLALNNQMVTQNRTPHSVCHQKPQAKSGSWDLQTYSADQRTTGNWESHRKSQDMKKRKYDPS

Sequence of Disintegrin and metalloproteinase domain-containing protein 17 (P78536 whole entry, the tested form may be a part): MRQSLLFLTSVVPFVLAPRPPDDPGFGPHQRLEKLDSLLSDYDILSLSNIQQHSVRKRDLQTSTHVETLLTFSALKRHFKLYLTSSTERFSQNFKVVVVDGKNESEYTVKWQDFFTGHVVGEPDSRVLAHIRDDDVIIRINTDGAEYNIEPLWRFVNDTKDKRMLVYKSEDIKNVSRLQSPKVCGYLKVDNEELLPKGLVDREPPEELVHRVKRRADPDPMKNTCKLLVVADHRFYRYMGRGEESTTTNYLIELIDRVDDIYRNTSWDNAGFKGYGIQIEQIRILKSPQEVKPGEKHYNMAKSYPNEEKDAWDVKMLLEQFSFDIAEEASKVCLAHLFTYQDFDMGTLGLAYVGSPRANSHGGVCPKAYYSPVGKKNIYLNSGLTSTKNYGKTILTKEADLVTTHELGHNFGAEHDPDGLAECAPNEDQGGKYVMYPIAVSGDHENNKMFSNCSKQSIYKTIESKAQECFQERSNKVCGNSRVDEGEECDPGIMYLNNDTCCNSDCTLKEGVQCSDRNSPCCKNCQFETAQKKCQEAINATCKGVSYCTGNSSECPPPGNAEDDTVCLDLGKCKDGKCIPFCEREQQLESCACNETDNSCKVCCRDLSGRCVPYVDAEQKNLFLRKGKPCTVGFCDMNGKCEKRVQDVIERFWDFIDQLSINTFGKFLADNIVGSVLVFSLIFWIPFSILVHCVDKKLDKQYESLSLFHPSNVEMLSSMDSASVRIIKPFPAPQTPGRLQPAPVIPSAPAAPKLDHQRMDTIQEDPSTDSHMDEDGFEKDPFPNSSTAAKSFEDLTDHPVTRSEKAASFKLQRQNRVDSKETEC
Sequence of Cytochrome P450 2C19 (P33261 whole entry): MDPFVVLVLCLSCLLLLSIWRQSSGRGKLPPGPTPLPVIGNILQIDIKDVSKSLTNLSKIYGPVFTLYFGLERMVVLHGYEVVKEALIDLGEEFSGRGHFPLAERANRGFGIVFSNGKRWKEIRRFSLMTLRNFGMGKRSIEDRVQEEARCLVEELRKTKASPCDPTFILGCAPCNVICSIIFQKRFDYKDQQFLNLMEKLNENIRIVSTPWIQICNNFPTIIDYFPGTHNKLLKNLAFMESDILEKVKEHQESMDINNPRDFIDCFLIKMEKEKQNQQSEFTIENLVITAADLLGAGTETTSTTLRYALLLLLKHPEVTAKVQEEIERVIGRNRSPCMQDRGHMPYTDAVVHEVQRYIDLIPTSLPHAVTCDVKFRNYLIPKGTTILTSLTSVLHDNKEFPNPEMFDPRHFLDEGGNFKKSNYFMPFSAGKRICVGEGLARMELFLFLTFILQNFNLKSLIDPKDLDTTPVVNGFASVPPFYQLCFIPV

O=C(NN=C(S)NC1CCCCC1)c1ccccc1O
IC50 [1]: > 122 µM (inactive)

Cc1ccc(-n2c(SCC(=O)Nc3cccc(S(N)(=O)=O)c3)nc3ccccc32)cc1
IC50 [2]: > 69.5 µM (inactive) | IC50 [3]: > 69.5 µM (inactive)

O=C(N=CNOCc1ccc(Cl)cc1Cl)NOCc1ncc(C(F)(F)F)cc1Cl
AC50 [4]: 4.02 µM (active) | IC50 [2]: 12.9 µM (inactive)

O=C(NC=NOCc1ccc(Cl)cc1Cl)NOCc1ncc(C(F)(F)F)cc1Cl
IC50 [3]: > 69.5 µM (inactive)

O=C(NNC(=S)NC(=O)c1ccccc1[N+](=O)[O-])c1ccccc1Cl
IC50 [1]: 115 µM (inactive)

Cc1ccccc1OCC(=O)NNC(=S)NC(=O)c1ccccc1[N+](=O)[O-]
IC50 [1]: 64.9 µM (inactive)

CN(c1ccc(C(=O)NCCSCc2ccccc2)cc1)S(=O)(=O)c1ccccc1
AC50 [5]: > 100 µM (inactive)

CN(C)CCCn1c2c3ccccc3ccc2c2oc(=O)c3ccccc3c21
AC50 (Cytochrome P450 2C19): 0.794 µM (inconclusive) | EC50 [6]: > 99 µM (inactive) | EC50 [7]: > 99 µM (inactive) | AC50 [8]: < 0.681 µM (active)
